Experimental data published in patent publication US20090042783A1, “APO E ANALOGS AND METHODS FOR THEIR USE” (priority 2004, published 2009).
Like-named read-outs stand apart in the source and are kept apart here. Marks after values point to notes of the source that are not given here. Non-standard residues stand in square brackets, D forms with d. Aib = CC(C)(N)C(=O)O

Legend:
[1] = tested on: BV2 murine microglial cells
Protocol: For Applicants preliminary work, the two most common PTDs, TAT and penetratin, were used.
Cell Culture: BV-2, a well-characterized murine microglial cell line (Bochinni, 1992), is cultured in high glucose content DMEM supplemented with 1% penicillin/streptomycin, 10% fetal calf serum, 1% nonessential amino acids, and 1% sodium pyruvate. Cells are grown to confluency; trypsinized; spun down; resuspended in serum-free OptiMEM containing 1% N2 supplement, 1% penicillin/streptomycin, 1% nonessential amino acids, and 1% sodium pyruvate; and plated at a concentration of 20,000 cells/well to remove any nonadherent cells and serum.
Supernatant is collected 24 and/or 48 h after LPS stimulation and assayed for nitrite.
Quantification of Nitric Oxide (NO): Accumulation of nitrite (stable end product of NO production) in the medium is measured by colometric Griess reagent system (Promega); the absorbance is determined at 540 nm.
Cell Viability Assay: Cell viability is measured using a nonradioactive cell viability assay (cell titer 96 AQ, Promega). The assay measures the bioreduction of MTS (3-(4,5-dimethylthiazole-2-)-5-(3-carboxymethoxyphenyl)-2-(4-sulfophenyl)-2H-tetrazolium by viable cells into formazan. The absorbance of the calorimetric assay is measured at λ 490 nm. Viability is assessed and used to normalize the nitrite data.

peritoneal macrophages = assay: Peritoneal macrophage production of NO, TNFα and IL-6 induced by MOG or LPS/IFN-γ; format: cell-based, mouse
Protocol: For this purpose, three mice with clinical scores of 0 and three with clinical scores of 4 at 30 dpi (day post-immunization) were used for preparation of peritoneal macrophage cultures. Macrophages were collected after peritoneal lavage with 3 ml heparin (10 U/ml)-containing PBS and then seeded to 96-well microplates at a density of 1×10^5 cells/well in Dulbecco's MEM containing 10% fetal bovine serum, 2 mM L-glutamine serum, 1% HEPES and 100 U/ml penicillin and 100 μg/ml streptomycin, 37° C. in a humidified incubator with 5% CO2. 24 h later, the serum-containing medium was removed and cells were washed once with serum-free medium. To examine the differentiated response of macrophage to immune stimulators, macrophages obtained from mice with clinical scores of 0 or 4 were exposed to serial concentrations of IFN-γ/LPS or MOG35-55 peptide. […] Media were collected at 45 h or 72 h, and analyzed by ELISA for […] and IL-6 or for nitric oxide (NO) as detailed below.
As the stable end product of nitric oxide release, nitrite levels in conditioned media were determined by injecting 50 μl media sample into a Sievers 280 NOA analyzer (Boulder, Colo., USA). Total protein (μg/well) was measured using the BCA method (Pierce, Rockford, Ill., USA) according to manufacturer's instructions with BSA as standard. BCA values were measured using a Molecular Devices Thermomax Microplate Reader (Menlo Park, Calif., USA) at OD562. Nitric oxide levels ere expressed as μM NO2—/mg protein.
For cytokine assays, supernatants were collected 45 h after […]/LPS or MOG treatments and quantitative ELISAs using selected pairs of monoclonal antibodies (as recommended by the manufacturer Biosource) were performed to quantify the cytokines, TNF-α and IL-6. For TNF-α ELISA, 96-well ELISA plates were pre-coated with rabbit anti-mouse polyclonal to TNF-α as capture antibodies for 18 h at 2-8° C. and then blocked for 2 h at room temperature. The wells were incubated with samples or mouse TNF-α standards. Following incubation for 2 h at room temperature, the wells were washed, after which hamster anti-mouse TNF-α biotinylated secondary antibody and horseradish peroxidase conjugate were added. Tetramethylbenzidine (TMB) solution was then added, and peroxidase-catalyzed color change was stopped by acidification with 2 NH2SO4. The plates were scanned at wavelength 450 nm and the absorbance were measured. The results are expressed as the mean concentration (pg/ml) ±SEM.
For IL-6 ELISA, rat anti-mouse monoclonal to IL-6 was used as capture antibody, and biotinylated rat anti-mouse monoclonal to IL-6 as detection antibody. The rest of procedure is identical to that of TNF-α ELISA.

BV2 microglial cells = tested on: BV2 microglial cells
Protocol: For suppression of inflammation profiling, each peptide analog was tested at a final concentration of 0.1, […], 1, 3, 5, 10 and 25 μM in an LPS induced BV2 microglial cell release of NO and/or TNFα. […] The modification was a biotin label on the apoE peptide (biotin-[…]-amide) which allows detection with ^125I-streptavidin (ISA, Amersham).
In overview, BV-2 cells are plated in 96 well plates in complete media and then the media is replaced the next day with serum free media or reduced serum (1%) media. […] Each concentration of peptide (standard initial concentrations are 0.1, 0.5, 1, 3, 10 and 25 μM) is added to at least 6 wells of cells (e.g. 6 wells get 0.1 μM peptide, 6 wells get 0.5 μM peptide, etc.) and data are averaged from all 6 wells. […] (2001). Cell viability is also measured with an MTT assay (Laskowitz et al. 2001).

[2] = tested on: mice infected with C. rodentium; assay: C. rodentium colitis; format: in vivo; details: for Colon wt (% Total Body wt) / Histology Score / Body wt (% Total Body wt): WT mice, 10 days; for Body wt (% Total Body wt): 0.1% BEC or 2.5% DFMO
Description: C. rodentium colitis: Of the two existing mouse models (Gobert A P et al., 2004; Cheng Y. et al., 2003), the C. rodentium model was selected because it produces a Th1-predominant mucosal inflammation that has histologic changes similar to human IBD (Higgins L M et al., 1999). In this model, mice are infected by oral gavage with C. rodentium (Gobert A P et al., 2004), a gram negative pathogenic bacterium that is the rodent equivalent of enteropathogenic E. coli that causes diarrhea in humans.
Since arginase I and iNOS were both abundantly expressed in the colitis tissues and L-Arg was completely metabolized, we investigated the effect of administration of 1% L-Arg in the drinking water. In wild type (WT) mice, C. rodentium colitis induced a high level of mortality that began on day 9 post-infection (FIG. 31A). In WT animals treated with L-Arg, mortality was inhibited by 42% and 62% compared to mice receiving water alone, after 12 and 14 days of infection, respectively (FIG. 31A). By Cox regression analysis, WT mice treated with L-Arg had only a 31% hazard of death compared with mice receiving water alone (p<0.0009). In iNOS^−/− mice, no deaths were observed, with or without L-Arg (FIG. 31A). […] Note that the weight loss of WT mice is underestimated, since only the weights of animals still alive could be included. […] There was an additive effect of iNOS deletion and L-Arg administration, with a 68% decrease in colon weight. Neither iNOS deletion nor L-Arg treatment affected colon weight in uninfected control mice. Importantly, these changes were closely paralleled by changes in colon histology (FIG. 32).
In uninfected control mice, BEC or DFMO had no effect (Table I). […] In fact, experiments had to be terminated early at 10 days post-infection, because of deaths and severe disease at this point.

[3] = tested on: mice with traumatic brain injury; assay: Closed head injury model of traumatic brain injury (rotorod, Morris Water Maze); details: for In vivo Therapeutic window time expanded?: mouse
Protocol: C57Bl/6J male mice (The Jackson Laboratory, ME), 12-16 weeks of age and weighing 24-32 g, are used for all experiments. Anesthesia is first induced with isoflurane in 30% O2/balance N2. The trachea is intubated and the lungs mechanically ventilated with 1.6% isoflurane in 30% O2/balance N2. Temperature is monitored with a rectal probe and maintained at 36.5° C. with a heat lamp. The right internal jugular vein is cannulated with silicone catheter. […] Intubated animals are then placed prone on a molded acrylic cast (FIG. 6A). […] The scalp is incised and the skull exposed. A concave 3 mm metallic disc is secured to the skull surface (with the concave surface in juxtaposition to the skull) by an adhesive. […] The disc is placed directly midline just caudal to bregma (FIG. 6B). […] The mice are positioned in a stereotactic frame. Although the stereotactactic frame helps to stabilize the animal and exactly calibrate the vertical displacement on impact (3 mm), ear bars are not used due to a much higher rate of skull fracture (or brainstem injury if the head rotates around the axis of the ear bars during impact). The piston is discharged at 6.8±0.2 m/s so as to impact the skull in the acrylic mold to move a maximum of approximately 3 mm (FIG. 6C). Inspired isoflurane is decreased to 0.7% immediately after impact. The scalp was infiltrated with lidocaine and closed with suture. Ophthalmic ointment was applied to the eyes for protection. The incidence of skull fracture is low (approximately 10%), as the metal disk helps to diffuse the impact, and the absence of ear bar fixation allows for displacement of the entire head. Mice were excluded if a depressed skull fracture was observed (incidence of approximately 10%). The animals are allowed to recover spontaneous ventilation then extubated. […] In these mice, arterial blood pressure, blood gas and glucose measurement at baseline, immediately after injury, and 15 minutes after injury are monitored during the recovery period.
Briefly, baseline performance on rotorod is established before the mice are intubated, the skin over the scalp reflected and a controlled cortical impact from a pneumatic impactor given on the midline. The skin is closed with surgical clips and the animals are constantly monitored until awake from anesthesia and then hourly for the next 4 hours. […] Performance on rotorod is tested at 24 hours post impaction and then every day for 5 days and data is presented as described. Groups of 12 mice are used for each compound at 0.5×MTD. […] Novel peptides and non-peptide analogs are also given by tail vein injection.
Daily Rotarod (RR) testing was used to assess short term motor and cerebellar deficit following head injury (Hamm et al., 1994). Mice were held by their tails and placed on the RR facing the wall by using gentle swinging motion while running in a constant speed mode.

## Ac-RRRRRRRRLRVRLASHLRKLRKRLL-NH2 (N-terminus and C-terminus assumed) [polyArg (8R)]
[1]
  IC50: 4 µM
[1]; read-out: IC50 TNFα, in vitro
  IC50: 4.2 µM

## RQIKIWFQNRRMKWKK (Protein transduction domain conjugate Antp) [antennapedia prefix peptide, portion of antennapedia that serves as a prefix to COG133, reference compound]
Peritoneal macrophages
  Inhibition of cytokine production induced by MOG or LPS/IFN-γ: showed no activity

## LRVRLASHLRKLRKRLA [L149A]
BV2 microglial cells; read-out: Structure activity in the COG133 peptide from single amino acid replacements, binding and/or suppression of NO or TNFα release, compared with 3.5 μM EC50 of COG133
  EC50: > 3.5 µM

## apoE 130-147: truncated apoE peptide, residues 130-147 (TEELRVRLASHLRKLRKR; UniProt P02649 148-165, looked up, fragment)
BV2 microglial cells
  Activity at 25 μM in suppression of NO / TNFα release: failed to show activity

## ApoE 135-149: truncated apoE peptide, residues 135-149 (VRLASHLRKLRKRLL; UniProt P02649 153-167, looked up, fragment)
BV2 microglial cells
  Fold less potent than apoE 130-150: 5 fold

## CSCC[C@H](NC(=O)[C@H](CCCNC(=N)N)NC(=O)[C@H](CCCNC(=N)N)NC(C)=O)C(=O)N[C@@H](CCCCN)C(=O)N[C@@H](Cc1c[nH]c2ccccc12)C(=O)N[C@@H](CCCCN)C(=O)N[C@@H](CCCCN)C(=O)N[C@@H](CC(C)C)C(=O)N[C@@H](CCCNC(=N)N)C(=O)N[C@H](C(=O)N[C@@H](CCCNC(=N)N)C(=O)N[C@@H](CC(C)C)C(=O)N[C@@H](C)C(=O)N[C@@H](CO)C(=O)N[C@@H](Cc1c[nH]cn1)C(=O)N[C@@H](CC(C)C)C(=O)N[C@@H](CCCNC(=N)N)C(=O)N[C@@H](CCCCN)C(=O)N[C@@H](CC(C)C)C(=O)N[C@@H](CCCNC(=N)N)C(=O)N[C@@H](CCCCN)C(=O)N[C@@H](CCCNC(=N)N)C(=O)N[C@@H](CC(C)C)C(=O)N[C@@H](CC(C)C)C(N)=O)C(C)C [antp (52-58)]
[1]
  IC50: 11 µM

## NCCCC(N)(C(=O)O)C(F)F (centres unmarked) [DFMO, -difluoromethylornithine]
[2]; C. rodentium
  Colon wt (% Total Body wt): 1.35 ± 0.12^b,d % Total Body wt
  Histology Score: 9.54 ± 0.68^b,d
  Body wt (% Total Body wt): 78.6 ± 0.4^b,c % Total Body wt
[2]; PBS (uninfected)
  Colon wt (% Total Body wt): 0.61 ± 0.07 % Total Body wt
  Histology Score: 0.75 ± 0.25
  Body wt (% Total Body wt): 101.3 ± 2.6 % Total Body wt
[2]; in the drinking water
  Survival of C. rodentium-infected mice: significant loss of survival
[2]; mouse, in vivo
  Effect in uninfected control mice: had no effect

## Ac-ASHLRKLRKRLL-NH2 [apoE 138-149]
BV2 microglial cells
  Activity at 25 μM in suppression of NO / TNFα release: failed to show activity

## ApoE 139-149: truncated apoE peptide, residues 139-149 (SHLRKLRKRLL; UniProt P02649 157-167, looked up, fragment)
BV2 microglial cells
  Activity at 25 μM in suppression of NO / TNFα release: failed to show activity

## apoE 137-149: truncated apoE peptide, residues 137-149 (LASHLRKLRKRLL; UniProt P02649 155-167, looked up, fragment)
BV2 microglial cells
  Activity at 25 μM in suppression of NO / TNFα release: failed to show activity

## apoE 136-149: truncated apoE peptide, residues 136-149 (RLASHLRKLRKRLL; UniProt P02649 154-167, looked up, fragment)
BV2 microglial cells
  Fold less potent than apoE 130-150: 8 fold

## Ac-RGGRLAYLRRRWAVLGRLRVRLASHLRKLRKRLL-NH2 (N-terminus and C-terminus assumed) [SynB5]
[1]
  IC50: 3.2 µM
[1]; read-out: IC50 TNFα, in vitro
  IC50: 4.2 µM
[3]
  In vivo Therapeutic window time expanded?: No; Tested at 6 X

## apoE 130-148: truncated apoE peptide, residues 130-148 (TEELRVRLASHLRKLRKRL; UniProt P02649 148-166, looked up, fragment)
BV2 microglial cells
  Activity at 25 μM in suppression of NO / TNFα release: failed to show activity

## apoE 134-149: truncated apoE peptide, residues 134-149 (RVRLASHLRKLRKRLL; UniProt P02649 152-167, looked up, fragment)
BV2 microglial cells
  Fold less potent than apoE 130-150: 2.5 fold

## Ac-ASHLRKL-Aib-KRLL-NH2 (Ac-ASHLRKL[Aib]KRLL-NH2; SMILES CC(=O)N[C@@H](C)C(=O)N[C@@H](CO)C(=O)N[C@@H](Cc1c[nH]cn1)C(=O)N[C@@H](CC(C)C)C(=O)N[C@@H](CCCNC(=N)N)C(=O)N[C@@H](CCCCN)C(=O)N[C@@H](CC(C)C)C(=O)NC(C)(C)C(=O)N[C@@H](CCCCN)C(=O)N[C@@H](CCCNC(=N)N)C(=O)N[C@@H](CC(C)C)C(=O)N[C@@H](CC(C)C)C(N)=O) [COG432]
[3]; 4 mg/kg, started 2 hours post TBI, day 5 post TBI
  Rotorod performance (100% is performance prior to TBI): about 80%

## Ac-RRLSYSRRRFLRVRLASHLRKLRKRLL-NH2 (N-terminus and C-terminus assumed) [SynB3]
[1]
  IC50: 5.9 µM
[1]; read-out: IC50 TNFα, in vitro
  IC50: 5.1 µM
[3]; 2 hours post traumatic brain injury
  Rotorod latency, single tail vein injection 2 hours post TBI: significantly improves outcome from head trauma
[3]
  In vivo Therapeutic window time expanded?: Yes; tested at 4 X
